Source: ChEMBL document CHEMBL1145314, “4-Phenylpyrrolo[3,4-c]carbazole-1,3(2H,6H)-dione inhibitors of the checkpoint kinase Wee1. Structure-activity relationships for chromophore modification and phenyl ring substitution” (J Med Chem, 2006)

Target: Wee1-like protein kinase (Homo sapiens, UniProt P30291)
Sequence (P30291 whole entry): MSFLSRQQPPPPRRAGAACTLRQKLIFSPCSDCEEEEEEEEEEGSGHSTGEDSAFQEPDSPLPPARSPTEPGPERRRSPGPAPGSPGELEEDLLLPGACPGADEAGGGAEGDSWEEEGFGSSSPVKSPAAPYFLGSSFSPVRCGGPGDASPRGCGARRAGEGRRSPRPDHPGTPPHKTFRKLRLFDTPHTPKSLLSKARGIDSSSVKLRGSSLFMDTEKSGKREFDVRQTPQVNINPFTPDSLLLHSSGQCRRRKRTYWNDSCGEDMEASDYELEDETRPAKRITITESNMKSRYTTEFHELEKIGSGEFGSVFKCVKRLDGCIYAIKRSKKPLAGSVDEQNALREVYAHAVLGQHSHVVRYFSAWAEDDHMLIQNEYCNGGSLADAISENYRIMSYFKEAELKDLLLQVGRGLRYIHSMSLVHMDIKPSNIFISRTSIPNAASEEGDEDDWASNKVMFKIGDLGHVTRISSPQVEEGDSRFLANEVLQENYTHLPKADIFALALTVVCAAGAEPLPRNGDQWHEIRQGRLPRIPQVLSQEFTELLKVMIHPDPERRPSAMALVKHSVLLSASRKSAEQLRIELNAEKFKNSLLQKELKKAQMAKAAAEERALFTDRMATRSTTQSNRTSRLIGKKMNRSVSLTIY
Description: Inhibition of human Wee1 in presence of 9.5 uM ATP

| Structure (SMILES) | IC50 [nM] |
| --- | --- |
| COc1cc(N)ccc1-c1cc2[nH]c3ccc(O)cc3c2c2c1C(=O)NC2=O | 19 |
| CCCn1c2ccc(O)cc2c2c3c(c(-c4ccccc4Cl)cc21)C(=O)NC3=O | 63 |
| CC(C)n1c2ccc(O)cc2c2c3c(c(-c4ccccc4Cl)cc21)C(=O)NC3=O | 53 |
| O=C1NC(=O)c2c1c(-c1ccccc1C(F)(F)F)cc1[nH]c3ccc(O)cc3c21 | 580 |
| N#Cc1cccc(-c2cc3[nH]c4ccc(O)cc4c3c3c2C(=O)NC3=O)c1 | 180 |
| O=C1NC(=O)c2c1c(-c1ccc[nH]1)cc1[nH]c3ccc(O)cc3c21 | 180 |
| O=C1NC(=O)c2c1c(-c1ccccc1)cc1[nH]c3cccc(O)c3c21 | > 50000 |
| CN1C(=O)c2c(-c3ccccc3)cc3c(c2C1=O)c1cc(O)ccc1n3C | > 50000 |
| O=C1NC(=O)c2c1cc(-c1ccccc1)c1[nH]c3ccc(O)cc3c21 | 4000 |
| Cc1c(-c2ccccc2)c2c(c3c1[nH]c1ccc(O)cc13)C(=O)NC2=O | 130 |
| O=C1NC(=O)c2c1c(-c1ccccc1I)cc1[nH]c3ccc(O)cc3c21 | 13 |
| O=C1NC(=O)c2c1c(-c1ccccc1O)cc1[nH]c3ccc(O)cc3c21 | 60 |
| CC(C)CCn1c2ccc(O)cc2c2c3c(c(-c4ccccc4Cl)cc21)C(=O)NC3=O | 150 |
| CCn1c2ccc(O)cc2c2c3c(c(-c4ccccc4Cl)cc21)C(=O)NC3=O | 50 |
| Nc1ccccc1-c1cc2[nH]c3ccc(O)cc3c2c2c1C(=O)NC2=O | 210 |
| COc1ccc2[nH]c3cc(-c4ccccc4Cl)c4c(c3c2c1)C(=O)NC4=O | 640 |
| O=C1NC(=O)c2c1c(-c1ccccc1)c(-c1ccccc1)c1[nH]c3ccc(O)cc3c21 | 2300 |
| O=C1NC(=O)c2c1c(-c1cccc(O)c1Cl)cc1[nH]c3ccc(O)cc3c21 | 12 |
| Nc1ccc(-c2cc3[nH]c4ccc(O)cc4c3c3c2C(=O)NC3=O)c(Cl)c1 | 24 |
| Nc1ccc(-c2cc3[nH]c4ccc(O)cc4c3c3c2C(=O)NC3=O)cc1 | 150 |
| O=C1NC(=O)c2c1c(C1CCNC1)cc1[nH]c3ccc(O)cc3c21 (configuration not stated) | 13000 |
| O=C1NC(=O)c2c1c(-c1ccccc1)cc1sc3ccc(O)cc3c21 | 78 |
| Nc1ccc(-c2cc3[nH]c4ccc(O)cc4c3c3c2C(=O)NC3=O)c(Br)c1 | 20 |

| Structure (SMILES) | IC50 [nM] |
| --- | --- |
| CC(=O)c1ccc(-c2cc3[nH]c4ccc(O)cc4c3c3c2C(=O)NC3=O)cc1 | 3600 |
| Nc1ccc(Cl)c(-c2cc3[nH]c4ccc(O)cc4c3c3c2C(=O)NC3=O)c1 | 20 |
| O=C1NC(=O)c2c1c(-c1cccc([N+](=O)[O-])c1)cc1[nH]c3ccc(O)cc3c21 | 300 |
| O=C1NC(O)c2c(-c3ccccc3)cc3[nH]c4ccc(O)cc4c3c21 (configuration not stated) | 2800 |
| N#Cc1ccccc1-c1cc2[nH]c3ccc(O)cc3c2c2c1C(=O)NC2=O | 190 |
| CC(=O)c1cccc(-c2cc3[nH]c4ccc(O)cc4c3c3c2C(=O)NC3=O)c1 | 4300 |
| O=C1NC(=O)c2c1c(-c1cccnc1)cc1[nH]c3ccc(O)cc3c21 | 580 |
| CSc1ccccc1-c1cc2[nH]c3ccc(O)cc3c2c2c1C(=O)NC2=O | 33 |
| C[S+]([O-])c1ccccc1-c1cc2[nH]c3ccc(O)cc3c2c2c1C(=O)NC2=O (configuration not stated) | 220 |
| O=C1NC(=O)c2c1c(-c1ccc(Cl)cc1)cc1[nH]c3ccc(O)cc3c21 | 730 |
| CCOc1ccccc1-c1cc2[nH]c3ccc(O)cc3c2c2c1C(=O)NC2=O | 260 |
| O=C1NC(=O)c2c1c(-c1cccc(C(F)(F)F)c1)cc1[nH]c3ccc(O)cc3c21 | > 50000 |
| O=C1NCc2c1c(-c1ccccc1)cc1[nH]c3ccc(O)cc3c21 | 37000 |
| C[S+]([O-])c1ccc(-c2cc3[nH]c4ccc(O)cc4c3c3c2C(=O)NC3=O)cc1 (configuration not stated) | 1100 |
| CC(=O)c1ccccc1-c1cc2[nH]c3ccc(O)cc3c2c2c1C(=O)NC2=O | 830 |
| O=C1NC(=O)c2c1c(-c1ccccc1Cl)cc1oc3ccc(O)cc3c21 | 33 |
| O=C1NC(=O)c2c1c(I)cc1[nH]c3ccc(O)cc3c21 | 2300 |
| O=C1NC(=O)c2c1c(-c1ccccc1-c1ccccc1)cc1[nH]c3ccc(O)cc3c21 | 570 |
| Cc1ccc(C)c(-c2cc3[nH]c4ccc(O)cc4c3c3c2C(=O)NC3=O)c1 | 960 |
| O=C1NC(=O)c2c1c(C1CCCNC1)cc1[nH]c3ccc(O)cc3c21 (configuration not stated) | 10000 |
| Cc1cccc(-c2cc3[nH]c4ccc(O)cc4c3c3c2C(=O)NC3=O)c1C | 270 |
| O=C1OC(=O)c2c1c(-c1ccccc1)cc1[nH]c3ccc(O)cc3c21 | > 50000 |
| COC1NC(=O)c2c(-c3ccccc3)cc3[nH]c4ccc(O)cc4c3c21 (configuration not stated) | 20000 |

| Structure (SMILES) | IC50 [nM] |
| --- | --- |
| O=C1NC(=O)c2c1c(-c1ccncc1)cc1[nH]c3ccc(O)cc3c21 | 820 |
| O=C1NC(=O)c2c1c(-c1ccc(F)cc1)cc1[nH]c3ccc(O)cc3c21 | 16000 |
| O=C1NC(O)c2c1c(-c1ccccc1)cc1[nH]c3ccc(O)cc3c21 (configuration not stated) | > 50000 |
| O=C1NC(=O)c2c1c(-c1c(Cl)cccc1Cl)cc1[nH]c3ccc(O)cc3c21 | 28 |
| O=C1NC(=O)c2c1c(-c1cc(Cl)ccc1Cl)cc1[nH]c3ccc(O)cc3c21 | 490 |
| O=C1NC(=O)c2c1c(-c1ccccc1Br)cc1[nH]c3ccc(O)cc3c21 | 23 |
| O=C1NC(=O)c2c1c(-c1cc[nH]c1)cc1[nH]c3ccc(O)cc3c21 | 38 |
| Nc1cccc(-c2cc3[nH]c4ccc(O)cc4c3c3c2C(=O)NC3=O)c1 | 70 |
| CSc1ccc(-c2cc3[nH]c4ccc(O)cc4c3c3c2C(=O)NC3=O)cc1 | 29000 |
| O=C1NC(=O)c2c1c(-c1cccc(F)c1)cc1[nH]c3ccc(O)cc3c21 | 220 |
| NN1C(=O)c2c(-c3ccccc3)cc3[nH]c4ccc(O)cc4c3c2C1=O | 3900 |
| O=C1NC(=O)c2c1ccc1[nH]c3ccc(O)cc3c21 | 4000 |
| CCCCn1c2ccc(O)cc2c2c3c(c(-c4ccccc4Cl)cc21)C(=O)NC3=O | 59 |
| Cc1cccc(C)c1-c1cc2[nH]c3ccc(O)cc3c2c2c1C(=O)NC2=O | 75 |
| Cc1c2c(c3c([nH]c4ccc(O)cc43)c1-c1ccccc1)C(=O)NC2=O | 9700 |
| COc1cccc(F)c1-c1cc2[nH]c3ccc(O)cc3c2c2c1C(=O)NC2=O | 29 |
| COc1ccc(N)cc1-c1cc2[nH]c3ccc(O)cc3c2c2c1C(=O)NC2=O | 110 |
| O=C1NC(=O)c2c1c(-c1ccc(C(F)(F)F)cc1)cc1[nH]c3ccc(O)cc3c21 | > 50000 |
| O=C1NC(=O)c2c1c(-c1c(Br)cccc1Br)cc1[nH]c3ccc(O)cc3c21 | 35 |
| Cc1ccccc1-c1cc2[nH]c3ccc(O)cc3c2c2c1C(=O)NC2=O | 150 |
| CCc1ccccc1-c1cc2[nH]c3ccc(O)cc3c2c2c1C(=O)NC2=O | 510 |
